According to patent US7902238B2, “2-aminooxazolines as TAAR1 ligands” (Hoffmann-La Roche Inc., priority 2007, dated 2011):

Columns and labels:
rat TAAR1 = rat TAAR1 (Rattus norvegicus, UniProt Q923Y9); assay: Radioligand binding on membranes of HEK293 cells stably expressing rat TAAR1
mouse TAAR1 = mouse TAAR1 (Mus musculus, UniProt Q923Y8); assay: Radioligand binding on membranes of HEK293 cells stably expressing mouse TAAR1
Sequence of mouse TAAR1 (Q923Y8 whole entry): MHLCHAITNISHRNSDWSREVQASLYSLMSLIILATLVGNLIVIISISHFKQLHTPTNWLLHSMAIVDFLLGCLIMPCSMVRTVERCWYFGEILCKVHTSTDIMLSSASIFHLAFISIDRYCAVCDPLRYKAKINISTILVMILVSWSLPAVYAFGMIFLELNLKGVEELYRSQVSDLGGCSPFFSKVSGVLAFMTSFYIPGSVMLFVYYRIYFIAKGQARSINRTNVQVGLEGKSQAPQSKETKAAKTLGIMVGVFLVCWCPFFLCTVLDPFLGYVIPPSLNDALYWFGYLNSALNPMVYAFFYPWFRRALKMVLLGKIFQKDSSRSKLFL

Sequence of rat TAAR1 (Q923Y9 whole entry): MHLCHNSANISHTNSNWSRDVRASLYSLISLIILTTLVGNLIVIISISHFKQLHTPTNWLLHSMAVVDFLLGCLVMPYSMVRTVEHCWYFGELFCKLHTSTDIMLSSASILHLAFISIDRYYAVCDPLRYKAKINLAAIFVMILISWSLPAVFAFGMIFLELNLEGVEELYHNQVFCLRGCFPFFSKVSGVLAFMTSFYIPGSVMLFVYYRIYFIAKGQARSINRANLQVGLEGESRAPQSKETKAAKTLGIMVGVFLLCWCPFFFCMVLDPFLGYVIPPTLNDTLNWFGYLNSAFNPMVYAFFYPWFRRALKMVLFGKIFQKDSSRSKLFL

Row | Structure (SMILES) | Ki (rat TAAR1) [nM] | Ki (mouse TAAR1) [nM]
1 | CCN(C[C@@H]1COC(N)=N1)c1ccccc1 [Example 1, (R)-4-[(Ethyl-phenyl-amino)-methyl]-4,5-dihydro-oxazol-2-ylamine] | 1.9 | 0.9
2 | CCN(C[C@H]1COC(N)=N1)c1ccccc1 [Example 3, (S)-4-[(Ethyl-phenyl-amino)-methyl]-4,5-dihydro-oxazol-2-ylamine] | 1 | 1
3 | CCN(C[C@H]1COC(N)=N1)c1ccc(Br)cc1 [Example 32, (S)-4-{[(4-Bromo-phenyl)-ethyl-amino]-methyl}-4,5-dihydro-oxazol-2-ylamine] | 0.6 | 2.8
4 | COc1cc(N(Cc2ccccc2)C[C@H]2COC(N)=N2)ccc1F [Example 42, (S)-4-{[Benzyl-(4-fluoro-3-methoxy-phenyl)-amino]-methyl}-4,5-dihydro-oxazol-2-ylamine] | 1.1 | 26.4
5 | NC1=N[C@@H](CN(Cc2ccccc2)c2ccc(F)cc2)CO1 [Example 53, (S)-4-{[Benzyl-(4-fluoro-phenyl)-amino]-methyl}-4,5-dihydro-oxazol-2-ylamine] | 0.9 | 18.7
6 | NC1=N[C@@H](CN(Cc2ccccc2)c2ccc(Cl)cc2)CO1 [Example 55, (S)-4-[{Benzyl-(4-chloro-phenyl)-amino]-methyl}-4,5-dihydro-oxazol-2-ylamine] | 0.6 | 28.8
7 | NC1=N[C@@H](CNc2cccc(Cl)c2)CO1 [Example 87, (S)-4-[(3-Chloro-phenylamino)-methyl]-4,5-dihydro-oxazol-2-ylamine] | 7.3 | –
8 | CCc1cccc(N(CC)C[C@H]2COC(N)=N2)c1 [Example 92, (S)-4-{[Ethyl-(3-ethyl-phenyl)-amino]-methyl}-4,5-dihydro-oxazol-2-ylamine] | 37000 | –
9 | CCc1ccc(N(CC)C[C@H]2COC(N)=N2)cc1 [Example 94, (S)-4-{[Ethyl-(4-ethyl-phenyl)-amino]-methyl}-4,5-dihydro-oxazol-2-ylamine] | 51000 | –
10 | CCN(C[C@H]1COC(N)=N1)c1ccc2c(c1)CCC2 [Example 99, (S)-4-[(Ethyl-indan-5-yl-amino)-methyl]-4,5-dihydro-oxazol-2-ylamine] | 3.2 | 6
11 | CN(C[C@H]1COC(N)=N1)c1cccc(-c2cnco2)c1 [Example 105, (S)-4-{[Methyl-(3-oxazol-5-yl-phenyl)-amino]-methyl}-4,5-dihydro-oxazol-2-ylamine] | 63.5 | 3.8
12 | CCN(C[C@H]1COC(N)=N1)c1cccc(-c2cnco2)c1 [Example 106, (S)-4-{[Ethyl-(3-oxazol-5-yl-phenyl)-amino]-methyl}-4,5-dihydro-oxazol-2-ylamine] | 18.8 | 4.1
13 | CCN(C[C@H]1COC(N)=N1)c1cc(F)cc(C(F)(F)F)c1 [Example 109, (S)-4-{[Ethyl-(3-fluoro-5-trifluoromethyl-phenyl)-amino]-methyl}-4,5-dihydro-oxazol-2-ylamine] | 1.7 | 2.5
14 | NC1=N[C@@H](CNc2ccccc2Cl)CO1 [Example 119, (S)-4-[(2-Chloro-phenylamino)-methyl]-4,5-dihydro-oxazol-2-ylamine] | 4.2 | 1.1
15 | NC1=N[C@@H](CNc2ccc(C(F)(F)F)c(F)c2)CO1 [Example 127, (S)-4-[(3-Fluoro-4-trifluoromethyl-phenylamino)-methyl]-4,5-dihydro-oxazol-2-ylamine] | 15.7 | 4.6
16 | NC1=N[C@@H](CNc2ccc(C(F)(F)F)cc2)CO1 [Example 132, (S)-4-[(4-Trifluoromethyl-phenylamino)-methyl]-4,5-dihydro-oxazol-2-ylamine] | 24.8 | 4.7
17 | CCN(C[C@H]1COC(N)=N1)c1ccc(C(F)(F)F)cc1 [Example 133, (S)-4-{[Ethyl-(4-trifluoromethyl-phenyl)-amino]-methyl}-4,5-dihydro-oxazol-2-ylamine] | 4.9 | 4.2
18 | NC1=N[C@@H](CNc2cccc(Cl)n2)CO1 [Example 135, ((S)-2-Amino-4,5-dihydro-oxazol-4-ylmethyl)-(6-chloro-pyridin-2-yl)-amine] | 48.9 | 8.7

Continued, values first:

Row | Ki (rat TAAR1) [nM] | Ki (mouse TAAR1) [nM] | Structure (SMILES)
19 | 0.3 | 1.4 | CN(C[C@H]1COC(N)=N1)c1ccc(Cl)c(Cl)c1 [Example 7, (S)-4-{[(3,4-Dichloro-phenyl)-methyl-amino]-methyl}-4,5-dihydro-oxazol-2-ylamine]
20 | 0.9 | 3.5 | CCN(C[C@H]1COC(N)=N1)c1ccc(Cl)cc1 [Example 11, (S)-4-{[(4-Chloro-phenyl)-ethyl-amino]-methyl}-4,5-dihydro-oxazol-2-ylamine]
21 | 0.8 | 22.4 | CC(C)N(C[C@H]1COC(N)=N1)c1ccc(Cl)c(Cl)c1 [Example 15, (S)-4-{[(3,4-Dichloro-phenyl)-isopropyl-amino]-methyl}-4,5-dihydro-oxazol-2-ylamine]
22 | 1.6 | 7.3 | COc1cc(N(C)C[C@H]2COC(N)=N2)ccc1Cl [Example 27, (S)-4-{[(4-Chloro-3-methoxy-phenyl)-methyl-amino]-methyl}-4,5-dihydro-oxazol-2-ylamine]
23 | 0.6 | 2.3 | CCN(C[C@H]1COC(N)=N1)c1ccc(Cl)c(OC)c1 [Example 28, (S)-4-{[(4-Chloro-3-methoxy-phenyl)-ethyl-amino]-methyl}-4,5-dihydro-oxazol-2-ylamine]
24 | 1.7 | 16.3 | CN(C[C@H]1COC(N)=N1)c1ccccc1 [Example 30, (S)-4-[(Methyl-phenyl-amino)-methyl]-4,5-dihydro-oxazol-2-ylamine]
25 | 1.9 | 1.3 | CN(C[C@H]1COC(N)=N1)c1ccc(Br)cc1 [Example 31, (S)-4-{[(4-Bromo-phenyl)-methyl-amino]-methyl}-4,5-dihydro-oxazol-2-ylamine]
26 | 0.2 | 2.2 | CCN(C[C@H]1COC(N)=N1)c1ccc(Cl)c(Cl)c1 [Example 33, (S)-4-{[(3,4-Dichloro-phenyl)-ethyl-amino]-methyl}-4,5-dihydro-oxazol-2-ylamine]
27 | 4.7 | 1.2 | CN(C[C@H]1COC(N)=N1)c1cccc(Br)c1 [Example 34, (S)-4-{[(3-Bromo-phenyl)-methyl-amino]-methyl}-4,5-dihydro-oxazol-2-ylamine]
28 | 1.8 | 9.7 | CCN(C[C@H]1COC(N)=N1)c1cccc(Br)c1 [Example 37, (S)-4-{[(3-Bromo-phenyl)-ethyl-amino]-methyl}-4,5-dihydro-oxazol-2-ylamine]
29 | 2 | 1.1 | COc1cc(N(C)C[C@H]2COC(N)=N2)ccc1F [Example 40, (S)-4-{[(4-Fluoro-3-methoxy-phenyl)-methyl-amino]-methyl}-4,5-dihydro-oxazol-2-ylamine]
30 | 2.7 | 1.9 | CCN(C[C@H]1COC(N)=N1)c1cccc(C)c1 [Example 65, (S)-4-[(Ethyl-m-tolyl-amino)-methyl]-4,5-dihydro-oxazol-2-ylamine]
31 | – | 0.4 | CN(C[C@H]1COC(N)=N1)c1ccc2ccccc2c1 [Example 77, (S)-4-[(Methyl-naphthalen-2-yl-amino)-methyl]-4,5-dihydro-oxazol-2-ylamine]
32 | 1 | – | CCN(C[C@H]1COC(N)=N1)c1cccc(Cl)c1 [Example 83, (S)-4-{[(3-Chloro-phenyl)-ethyl-amino]-methyl}-4,5-dihydro-oxazol-2-ylamine]
33 | 1.5 | – | CCN(C[C@H]1COC(N)=N1)c1ccc(Cl)cc1F [Example 95, (S)-4-{[(4-Chloro-2-fluoro-phenyl)-ethyl-amino]-methyl}-4,5-dihydro-oxazol-2-ylamine]
34 | 3 | 2.7 | CN(C[C@H]1COC(N)=N1)c1ccc(Cl)cc1F [Example 100, (S)-4-{[(4-Chloro-2-fluoro-phenyl)-methyl-amino]-methyl}-4,5-dihydro-oxazol-2-ylamine]
35 | 14.9 | 3.9 | CCN(C[C@H]1COC(N)=N1)c1ccccc1F [Example 107, (S)-4-{[Ethyl-(2-fluoro-phenyl)-amino]-methyl}-4,5-dihydro-oxazol-2-ylamine]
36 | 58.7 | 6 | CCN(C[C@H]1COC(N)=N1)c1ccccc1Cl [Example 111, (S)-4-{[(2-Chloro-phenyl)-ethyl-amino]-methyl}-4,5-dihydro-oxazol-2-ylamine]
37 | 6.2 | 2.8 | Cc1ccc(N(C)C[C@H]2COC(N)=N2)c(F)c1 [Example 113, (S)-4-{[(2-Fluoro-4-methyl-phenyl)-methyl-amino]-methyl}-4,5-dihydro-oxazol-2-ylamine]
38 | 18.2 | 2.8 | Cc1ccc(NC[C@H]2COC(N)=N2)c(F)c1 [Example 117, (S)-4-[(2-Fluoro-4-methyl-phenylamino)-methyl]-4,5-dihydro-oxazol-2-ylamine]
39 | 5.6 | 2.3 | CN(C[C@@H]1COC(N)=N1)c1ccc(Cl)cc1 [Example 125, (R)-4-{[(4-Chloro-phenyl)-methyl-amino]-methyl}-4,5-dihydro-oxazol-2-ylamine]
40 | 1.2 | 1.6 | CCN(C[C@@H]1COC(N)=N1)c1ccc(Cl)cc1 [Example 126, (R)-4-{[(4-Chloro-phenyl)-ethyl-amino]-methyl}-4,5-dihydro-oxazol-2-ylamine]
41 | 11.6 | 4.7 | CN(C[C@@H]1COC(N)=N1)c1ccc(F)cc1 [Example 128, (R)-4-{[(4-Fluoro-phenyl)-methyl-amino]-methyl}-4,5-dihydro-oxazol-2-ylamine]
42 | 2.7 | 8.8 | CC(C)N(C[C@@H]1COC(N)=N1)c1ccc(Cl)cc1 [Example 129, (R)-4-{[(4-Chloro-phenyl)-isopropyl-amino]-methyl}-4,5-dihydro-oxazol-2-ylamine]
43 | 3.6 | 5.7 | CN(C[C@H]1COC(N)=N1)c1ccc(C(F)(F)F)cc1 [Example 134, (S)-4-{[Methyl-(4-trifluoromethyl-phenyl)-amino]-methyl}-4,5-dihydro-oxazol-2-ylamine]
